Laboratory results reported in patent US20190161480A1, “Chemical Compounds” (GLAXOSMITHKLINE INTELLECTUAL PROPERTY DEVELOPMENT LIMITED, priority 2016, published 2019).
“Also recorded” adds a separate entry of the source.

Key:
PI3Kβ = PI3Kβ (Homo sapiens, UniProt P42338); assay: PI3K HTRF assay, PI3K-beta; type: biochemical; conditions: read-out: pIC50 PI3Kβ (converted); note: 400 µM ATP
Procedure: (§1) The binding of compounds to PI3K-alpha/beta/delta/gamma is determined by homogeneous time resolved fluorescence (HTRF) assays as follows;
(§2) Briefly, solid compound is dissolved in 100% DMSO at a concentration of 2 mM. Dilutions are prepared in 100% DMSO using a 1 in 4 serial step dilution. The dilutions are transferred to black low volume Greiner assay plates ensuring that the DMSO concentration is constant across the plate at 1% (0.1 μL/well).
(§3) PI3K Reaction Buffer (contains 50 mM HEPES pH 7.0 (NaOH), 150 mM NaCl, 10 mM MgCl2, 2.3 mM sodium cholate, […] CHAPS made up in milliQ water). Fresh DTT is added at a final concentration of 1 mM on the day of use.
(§4) Enzyme solutions: 1× PI3K Assay Buffer containing: • 550 pM PI3K-Alpha enzyme (275 pM final assay concentration) • 800 pM PI3K-Beta enzyme (400 pM final assay concentration) • 3 nM PI3K-Delta enzyme (1.5 nM final assay concentration) • 10 nM PI3K-Gamma enzyme (5 nM final assay concentration)
(§5) These concentrations are optimal to achieve a signal:background of between 1.5-4.5. The enzyme solution is added to columns 1-24 (3 μL/well) and plates are incubated for 15 minutes at room temperature.
(§6) Substrate solution: 1× PI3K Assay Buffer containing: • PI3K-Alpha: 500 μM ATP, 20 μM PIP2 and 120 nM biotin-PIP3.
(§7) This is added to all wells and plates are incubated for 1 hour at room temperature.
(§8) Detection solution: PI3K Detection Buffer (contains 50 mM HEPES pH 7.0 (HCl), 150 mM NaCl, 2.3 mM sodium cholate, 10 μM CHAPS, 240 mM potassium fluoride) containing 2 mM DTT (2× final assay concentration), 90 nM GRP-1 PH domain, 300 nM Streptavidin-APC and 24 nM Europium-anti-GST (6× final assay concentrations).
(§9) This is mixed left at room temperature (protected from light).
(§10) STOP solution: PI3K STOP Buffer (contains 50 mM HEPES pH 7.0 (HCl), 150 mM NaCl, 2.3 mM sodium cholate, 10 μM CHAPS, 150 mM EDTA).
(§11) Detection solution is diluted 1:1 with STOP solution and added to all wells (3 μL/well). Plates are covered and incubated on the bench for 45-60 minutes.
(§12) Plates are read on a PerkinElmer Envision, measuring TR-FRET between the complex formed between the GST-tagged PH domain and biotinylated PIP3 which both recruit fluorophores (Europium-labelled anti-GST & Strep-APC respectively). In the […] of an inhibitor, this complex is disrupted by the competitive action of non-biotinylated PIP3 (formed in the assay by the phosphorylation of PIP2 by the kinase & ATP). From this, the ratio of acceptor/donor was calculated (λex=317 nm, Δem donor=615 nm, Δem acceptor=665 nm) and used for data analysis.

PI3Kα = PI3Kα (Homo sapiens, UniProt P42336); assay: PI3K HTRF assay, PI3K-alpha; type: biochemical; conditions: read-out: pIC50 PI3Kα (converted); note: 250 µM ATP
PI3Kα, sequence (P42336 whole entry, species assumed): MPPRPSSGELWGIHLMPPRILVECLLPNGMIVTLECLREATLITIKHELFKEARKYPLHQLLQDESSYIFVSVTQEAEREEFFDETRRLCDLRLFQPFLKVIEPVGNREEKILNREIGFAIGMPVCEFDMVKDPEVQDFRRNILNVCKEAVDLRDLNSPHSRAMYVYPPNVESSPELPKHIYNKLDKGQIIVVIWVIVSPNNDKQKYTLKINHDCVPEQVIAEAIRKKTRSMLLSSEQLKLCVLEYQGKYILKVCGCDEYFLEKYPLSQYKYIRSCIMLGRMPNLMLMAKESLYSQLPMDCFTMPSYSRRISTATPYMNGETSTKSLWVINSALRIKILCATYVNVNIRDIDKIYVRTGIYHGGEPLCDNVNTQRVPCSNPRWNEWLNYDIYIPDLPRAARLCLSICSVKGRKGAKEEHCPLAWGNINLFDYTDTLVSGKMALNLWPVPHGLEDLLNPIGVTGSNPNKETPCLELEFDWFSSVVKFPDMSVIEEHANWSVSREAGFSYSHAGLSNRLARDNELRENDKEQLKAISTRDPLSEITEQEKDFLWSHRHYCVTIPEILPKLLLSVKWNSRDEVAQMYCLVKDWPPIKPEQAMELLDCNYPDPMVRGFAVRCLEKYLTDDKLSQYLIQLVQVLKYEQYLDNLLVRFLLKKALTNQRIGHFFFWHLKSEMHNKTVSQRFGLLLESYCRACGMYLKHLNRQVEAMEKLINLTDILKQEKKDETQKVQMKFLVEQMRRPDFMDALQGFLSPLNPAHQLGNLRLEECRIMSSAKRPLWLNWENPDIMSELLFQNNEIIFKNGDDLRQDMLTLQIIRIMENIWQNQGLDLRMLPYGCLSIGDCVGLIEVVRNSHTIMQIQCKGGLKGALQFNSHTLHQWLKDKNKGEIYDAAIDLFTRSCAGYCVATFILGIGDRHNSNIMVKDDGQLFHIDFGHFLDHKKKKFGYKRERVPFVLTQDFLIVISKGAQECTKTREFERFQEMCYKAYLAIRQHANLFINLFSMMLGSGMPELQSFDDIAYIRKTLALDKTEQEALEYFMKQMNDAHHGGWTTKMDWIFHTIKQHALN
PI3Kα, sequence (P27986 whole entry partner, species assumed): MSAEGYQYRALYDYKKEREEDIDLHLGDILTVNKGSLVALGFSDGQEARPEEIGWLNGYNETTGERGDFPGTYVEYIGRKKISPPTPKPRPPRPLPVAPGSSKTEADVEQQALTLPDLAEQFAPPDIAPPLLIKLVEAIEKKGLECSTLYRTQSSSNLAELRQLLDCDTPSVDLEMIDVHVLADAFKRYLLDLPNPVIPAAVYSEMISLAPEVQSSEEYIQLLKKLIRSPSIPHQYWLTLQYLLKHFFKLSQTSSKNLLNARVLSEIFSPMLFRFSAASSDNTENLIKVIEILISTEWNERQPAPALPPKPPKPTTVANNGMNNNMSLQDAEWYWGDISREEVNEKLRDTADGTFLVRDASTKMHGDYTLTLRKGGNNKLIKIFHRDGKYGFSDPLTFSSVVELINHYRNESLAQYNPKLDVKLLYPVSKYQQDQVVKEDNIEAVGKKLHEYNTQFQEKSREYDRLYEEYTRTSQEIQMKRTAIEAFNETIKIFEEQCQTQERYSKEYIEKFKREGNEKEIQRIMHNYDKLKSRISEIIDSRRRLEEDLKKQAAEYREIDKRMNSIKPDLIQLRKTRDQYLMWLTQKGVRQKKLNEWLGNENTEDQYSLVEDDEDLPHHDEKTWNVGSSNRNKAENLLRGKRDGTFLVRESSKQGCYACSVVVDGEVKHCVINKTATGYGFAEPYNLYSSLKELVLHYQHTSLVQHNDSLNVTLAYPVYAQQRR
Procedure: as §1, §2, §3, §4, §5, §6, §7, §8, §9, §10, §11, §12

PI3Kδ in CD4+ T cells = assay: Cellular washout in CD4+ T cells (αCD3 stimulation, IFNγ readout); type: cell-based, human; conditions: IC50 curve 48 h after washing cells versus no wash; five donors
Procedure: CD4+T cells were isolated from leukodepletion filter samples taken from healthy volunteers using Histopaque 1077 (Sigma Aldrich). Briefly, blood was allowed to drip into a 50 mL falcon tube and mixed with PBS (40 mL). 20 mL of diluted blood was then slowly layered onto 15 mL of Histopaque in a 50 mL falcon tube, which was then centrifuged at 800 rcf for 20 min at room temperature. The PBMC layer was then collected with a pasteur pipette into a new 50 mL falcon tube, and up to 50 mL of PBS was added. Cells were centrifuged at 300-400 rcf for 10 min at room temperature, supernatant was discarded and a second washing step was performed with PBS. Cells were then resuspended in 40 mL PBS+0.5% Bovine Serum Albumin (BSA). Isolation of CD4+T cells was performed according to manufacturer's protocol (Miltenyi Biotec, 130-096-533). 1×10^6 CD4+T cells were dispensed into a 24 well plate with a final volume of 1 mL per well. Compounds at 1000× the final assay concentration, or DMSO, were then added to wells and cells were incubated for 2 h. 2×10^5 cells and media was added to a 96-well plate (in duplicate) and classified as no-wash. […] Supernatant and cells were centrifuged at 800 rcf for 5 min and 120 μL of supernatant was collected and analysed using MSD IFNγ kit as detailed above for the human whole-blood assay. […]

PI3Kδ [1] = molecular target: T1, PI3Kδ (Homo sapiens, UniProt O00329); assay: PI3Kδ jump dilution experiment; type: biochemical; conditions: 15 min incubation, 100-fold dilution, read for 30 minutes
T1 sequence (O00329 whole entry): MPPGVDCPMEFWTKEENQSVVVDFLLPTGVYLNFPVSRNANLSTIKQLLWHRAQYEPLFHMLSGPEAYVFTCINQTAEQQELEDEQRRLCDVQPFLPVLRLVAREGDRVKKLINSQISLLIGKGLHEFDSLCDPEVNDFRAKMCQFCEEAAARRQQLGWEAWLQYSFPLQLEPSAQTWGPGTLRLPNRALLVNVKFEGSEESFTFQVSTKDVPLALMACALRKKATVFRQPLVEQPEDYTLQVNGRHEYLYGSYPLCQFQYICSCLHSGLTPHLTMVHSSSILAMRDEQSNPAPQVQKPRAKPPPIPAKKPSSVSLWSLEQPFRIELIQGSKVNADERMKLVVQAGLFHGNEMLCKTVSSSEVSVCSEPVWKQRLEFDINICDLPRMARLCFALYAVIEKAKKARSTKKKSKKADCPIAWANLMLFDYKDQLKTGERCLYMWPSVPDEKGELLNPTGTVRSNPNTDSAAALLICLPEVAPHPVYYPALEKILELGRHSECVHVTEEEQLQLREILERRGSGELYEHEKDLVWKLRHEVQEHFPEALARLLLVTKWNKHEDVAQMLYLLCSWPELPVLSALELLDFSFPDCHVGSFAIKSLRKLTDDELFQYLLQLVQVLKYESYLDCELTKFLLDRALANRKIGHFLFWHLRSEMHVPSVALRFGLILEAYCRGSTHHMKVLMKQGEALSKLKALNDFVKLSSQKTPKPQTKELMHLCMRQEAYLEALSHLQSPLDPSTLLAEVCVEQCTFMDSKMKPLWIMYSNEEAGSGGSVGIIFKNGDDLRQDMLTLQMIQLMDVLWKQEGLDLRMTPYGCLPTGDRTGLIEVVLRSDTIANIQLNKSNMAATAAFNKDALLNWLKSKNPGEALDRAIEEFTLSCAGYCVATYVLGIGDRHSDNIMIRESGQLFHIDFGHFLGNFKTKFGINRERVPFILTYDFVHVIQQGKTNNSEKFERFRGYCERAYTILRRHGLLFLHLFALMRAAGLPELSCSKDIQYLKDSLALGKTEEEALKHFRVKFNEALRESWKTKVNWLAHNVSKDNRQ
T1 sequence (P27986 whole entry partner): as the sequence (P27986 whole entry partner, species assumed) above
Procedure: Irreversibility of the PI3Kδ-Inhibitor complex, and reversibility of the non-covalent controls, was determined by jump-dilution assay as follows:
PI3Kδ enzyme was made up to a 100× assay concentration (final assay concentration=6 nM) in buffer solution (contains 50 mM HEPES pH 7.0 (NaOH), 150 mM NaCl, 10 mM MgCl2, 2.3 mM sodium cholate, 10 μM CHAPS made up in milliQ water).
100× enzyme solution was added to compound wells (20 μL/well), and incubated for 15 mins, after which point the assay was diluted 100-fold with commercially available ADP QUEST substrate solution, available from DiscoverX (calatog number: 90-0071), (3200 μL DiscoverX Reagent A, 6400 μL DiscoverX Reagent B, 1 mM ATP and 40 μM PIP2). Production of fluorescence signal was then measured immediately using a Tecan Safire II plate reader at 30 second intervals for 30 minutes (λex=544 nm, λem=590 nm).

PI3Kδ [2] = molecular target: T1, PI3Kδ; assay: Protein mass spectrometry: covalent adduct assessment and competition experiment; type: binding
Procedure: Compounds were incubated with 1 μM protein in a 10:1 inhibitor:protein ratio in buffer containing 50 mM HEPES, pH 7.0 (NaOH), 150 mM NaCl, 10 mM MgCl2, 2.3 mM cholate, 10 μM CHAPS. After the desired time, the assays were quenched with a 10% formic acid solution, and analysed by LCMS using an Agilent 6224 TOF LC/MS equipped with Agilent 1200 Series autosampler. Analytes were separated on a Polymer Labs (Agilent) PLRP-S column (50 mm×1 mm internal diameter, 5 μm particle size). LC conditions were 0.5 mL·min^−1 flow rate, 70° C., 10 μL injection volume. Gradient elution with (A) water containing 0.2% (v/v) formic acid and (B) acetonitrile containing 0.2% (v/v) formic acid. Gradient conditions were initially 10% B, increasing to 30% after 0.5 min, and then linearly to 80% B over 4.5 min, prior to a 1.2 min flush with 100% B and then a 1.9 minute equilibration with 10% B prior to the next injection. Mass spectra were then deconvoluted using Agilent MassHunter Qualitative Analysis version B.06.00 over the mass range 70-170 kDa to obtain the intact protein mass.
A potent reversible ATP competitive inhibitor was incubated with 1 μM protein in a 10:1 inhibitor:protein ratio in buffer containing 50 mM HEPES, pH 7.0 (NaOH), 150 mM NaCl, 10 mM MgCl2, 2.3 mM cholate, 10 μM CHAPS at room temperature. […] The assay was quenched at 5 min and analysed using the procedure detailed above.

PI3Kγ = PI3Kγ (Homo sapiens, UniProt P48736); assay: PI3K HTRF assay, PI3K-gamma; type: biochemical; conditions: read-out: pIC50 PI3Kγ (converted); note: 15 µM ATP
PI3Kγ, sequence (P48736 whole entry, species assumed): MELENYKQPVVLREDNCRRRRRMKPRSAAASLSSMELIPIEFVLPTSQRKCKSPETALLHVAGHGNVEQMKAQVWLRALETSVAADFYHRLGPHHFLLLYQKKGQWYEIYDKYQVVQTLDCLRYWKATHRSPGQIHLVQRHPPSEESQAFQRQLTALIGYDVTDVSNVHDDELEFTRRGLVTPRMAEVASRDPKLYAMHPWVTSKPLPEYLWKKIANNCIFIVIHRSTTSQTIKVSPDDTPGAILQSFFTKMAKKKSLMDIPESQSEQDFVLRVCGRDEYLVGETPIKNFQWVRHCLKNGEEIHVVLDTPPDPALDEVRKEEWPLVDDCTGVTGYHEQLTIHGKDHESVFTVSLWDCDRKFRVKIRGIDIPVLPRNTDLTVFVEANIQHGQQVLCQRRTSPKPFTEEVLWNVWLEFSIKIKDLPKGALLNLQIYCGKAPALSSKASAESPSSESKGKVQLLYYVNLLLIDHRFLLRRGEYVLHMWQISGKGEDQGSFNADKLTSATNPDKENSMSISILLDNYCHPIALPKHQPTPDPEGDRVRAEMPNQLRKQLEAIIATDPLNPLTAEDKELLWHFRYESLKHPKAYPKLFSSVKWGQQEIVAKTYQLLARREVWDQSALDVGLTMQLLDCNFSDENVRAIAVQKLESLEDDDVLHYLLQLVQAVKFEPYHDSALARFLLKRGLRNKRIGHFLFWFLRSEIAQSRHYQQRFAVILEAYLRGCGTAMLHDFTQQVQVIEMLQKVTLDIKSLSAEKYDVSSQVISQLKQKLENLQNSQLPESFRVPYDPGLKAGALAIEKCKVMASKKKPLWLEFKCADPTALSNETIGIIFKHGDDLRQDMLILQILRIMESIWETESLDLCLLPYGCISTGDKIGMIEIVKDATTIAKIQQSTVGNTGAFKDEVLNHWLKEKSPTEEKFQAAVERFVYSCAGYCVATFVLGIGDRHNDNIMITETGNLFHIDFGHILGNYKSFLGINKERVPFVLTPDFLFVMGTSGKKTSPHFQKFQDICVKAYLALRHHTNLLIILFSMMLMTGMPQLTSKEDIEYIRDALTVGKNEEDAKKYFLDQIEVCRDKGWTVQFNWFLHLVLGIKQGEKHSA
Procedure: as §1, §2, §3, §4, §5, §6, §7, §8, §9, §10, §11, §12

PI3Kβ, sequence (P42338 whole entry, species assumed): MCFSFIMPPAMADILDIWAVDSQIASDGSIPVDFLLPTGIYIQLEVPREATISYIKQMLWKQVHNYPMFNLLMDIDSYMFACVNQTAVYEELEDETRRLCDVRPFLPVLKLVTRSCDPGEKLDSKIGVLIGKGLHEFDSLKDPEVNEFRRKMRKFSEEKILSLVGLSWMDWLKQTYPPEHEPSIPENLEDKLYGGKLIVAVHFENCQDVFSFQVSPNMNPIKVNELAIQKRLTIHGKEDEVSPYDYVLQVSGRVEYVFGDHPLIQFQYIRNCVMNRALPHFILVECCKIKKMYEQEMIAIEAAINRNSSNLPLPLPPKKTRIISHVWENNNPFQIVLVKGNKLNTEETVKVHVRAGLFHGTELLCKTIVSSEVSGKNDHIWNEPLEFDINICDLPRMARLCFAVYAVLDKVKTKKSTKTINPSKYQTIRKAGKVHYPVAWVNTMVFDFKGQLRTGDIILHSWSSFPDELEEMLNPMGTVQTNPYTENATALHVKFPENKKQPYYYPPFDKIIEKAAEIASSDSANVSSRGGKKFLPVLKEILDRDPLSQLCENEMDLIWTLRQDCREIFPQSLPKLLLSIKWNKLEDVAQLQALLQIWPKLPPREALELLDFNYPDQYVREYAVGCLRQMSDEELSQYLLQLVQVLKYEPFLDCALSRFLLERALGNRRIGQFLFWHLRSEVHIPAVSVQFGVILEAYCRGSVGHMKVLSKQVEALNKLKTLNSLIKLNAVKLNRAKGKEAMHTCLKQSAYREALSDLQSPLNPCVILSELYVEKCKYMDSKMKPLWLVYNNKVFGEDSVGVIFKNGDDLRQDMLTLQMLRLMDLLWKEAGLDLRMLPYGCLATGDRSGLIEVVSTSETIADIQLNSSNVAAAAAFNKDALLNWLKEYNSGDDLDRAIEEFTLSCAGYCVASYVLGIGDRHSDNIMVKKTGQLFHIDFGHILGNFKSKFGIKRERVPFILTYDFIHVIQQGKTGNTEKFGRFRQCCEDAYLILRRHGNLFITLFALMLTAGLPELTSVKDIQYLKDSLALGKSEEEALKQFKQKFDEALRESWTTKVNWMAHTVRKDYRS
PI3Kβ, sequence (P27986 whole entry partner, species assumed): as the sequence (P27986 whole entry partner, species assumed) above

## COc1ncc(-c2cc(-c3ncc(CN4CCN(C(C)C)CC4)o3)c3cn[nH]c3c2)cc1C(=O)Oc1ccc(F)cc1 [Example 7, 4-Fluorophenyl 5-(4-(5-((4-isopropylpiperazin-1-yl)methyl)oxazol-2-yl)-1H-indazol-6-yl)-2-methoxynicotinate]
PI3Kβ
  IC50: 5.01 µM
PI3Kα
  IC50: 3.16 µM
PI3Kδ in CD4+ T cells
  Duration of action at PI3Kδ in CD4+ T cells: at least 48 h
PI3Kδ [1]
  Recovery of enzyme activity after jump dilution: No recovery of activity
PI3Kδ [2]; 10:1 inhibitor:protein ratio, after 20 h (overnight)
  Additional adducts on PI3Kδ: no additional adducts
PI3Kδ [2]; 10:1 inhibitor:protein, incubated overnight
  Covalent modification of PI3Kδ (protein mass spectrometry): covalently modified
PI3Kδ [2]; competitor 10:1 for 15 min, then 2 equivalents of covalent inhibitor, quenched at 5 min
  Adduct formation after preincubation of enzyme with potent ATP-competitive inhibitor: prevented covalent modification; also recorded: attentuated formation of this adduct
PI3Kγ
  IC50: 15.8 µM
